Source: ChEMBL document CHEMBL5331133, “Discovery of AZD4747, a Potent and Selective Inhibitor of Mutant GTPase KRASG12C with Demonstrable CNS Penetration” (J Med Chem, 2023)

Experiments:
[1] = (§1) Efflux ratio of apparent permeability in dog MDCK cells transfected with MDR1 and BCRP at 0.1 uM; type: ADME, cell-based, Canis lupus familiaris; details: mdck, 0.1 µM
[2] = Lipophilicity, logD of compound at 7.4; details: octanol/water
[3] = […] stability in rat hepatocyte assessed as intrinsic clearance measured per million of cells; type: ADME, cell-based; details: hepatocytes
[4] = human, microsomes
Description: (§2) Microsomal stability in human liver microsomes assessed as intrinsic clearance

GTPase KRas = GTPase KRas (Homo sapiens, UniProt P01116, G12C)
Sequence of GTPase KRas (P01116 whole entry G12C): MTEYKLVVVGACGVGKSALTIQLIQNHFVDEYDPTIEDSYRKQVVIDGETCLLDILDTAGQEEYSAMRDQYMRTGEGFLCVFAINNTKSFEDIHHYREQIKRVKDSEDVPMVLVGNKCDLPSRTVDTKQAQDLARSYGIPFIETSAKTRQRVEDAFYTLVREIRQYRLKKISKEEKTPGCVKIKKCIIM

in vitro = details: human, liver microsomes, CLH
Description: as §2

MDR1 and BCRP = assay: as §1; type: ADME, cell-based, Canis lupus familiaris
[5] = Unbound brain-to-plasma concentration ratio in Wistar Han rat at 2.3 microM/Kg, iv and measured after 4 hrs; type: ADME, organism-based; details: read-out: K(p,uu,brain)
NCI-H358 = assay: Antiproliferative activity against human NCI-H358 cells harboring KRAS G12C mutant cultured as 3D spheroids assessed as reduction in cell proliferation incubated for 3 days by CellTiter-Glo 3D reagent based assay; type: functional; details: NCI-H358, 72 h
[6] = Dissociation constant, pKa of the compound; type: physicochemical

Row | Ratio [1] | logD ([2]; pH 7.4) | CLH [3] | CLH [4] | IC50 (GTPase KRas) | microsomal CLint (in vitro) | efflux ratio at 0.1 µM (MDR1 and BCRP) | logD ([2]; pH 7.4, logD) | Kp uu at 4 h [5] | IC50 (NCI-H358) | pKa [6] | SMILES
1 |  |  | 156 µL/min |  | 332 nM | 86 µL/min/mg | 0.4 | 3.2 | 0.24 |  |  | C=CC(=O)N1CCN2Cc3ccc(-c4c(C)ccc5[nH]ncc45)c(Cl)c3OC[C@H]2C1
2 |  |  | 59 µL/min |  | 74 nM | 15 µL/min/mg | 1.9 | 2.2 |  |  |  | C=CC(=O)N1CCN2Cc3cc(OC)c(-c4c(O)cccc4Cl)c(F)c3OC[C@H]2C1
3 |  |  | 8 µL/min |  | 110 nM | 10 µL/min/mg | 12.4 | 1 |  |  |  | C=CC(=O)N1CCN2Cc3cc(OCCN(C)C)c(-c4c(O)cccc4Cl)c(F)c3OC[C@H]2C1
4 |  |  | 48 µL/min |  | 99 nM | 41 µL/min/mg |  | 2 |  |  |  | C=CC(=O)N1CCN2C(=O)c3cc(OCCOC)c(-c4c(O)cccc4Cl)c(F)c3OC[C@H]2C1
5 |  |  | 130 µL/min |  | 1310 nM | > 294 µL/min/mg | 0.9 | 3.5 | 0.41 |  |  | C=CC(=O)N1CCN2Cc3ccc(-c4c(C)ccc5[nH]ncc45)c(Cl)c3OC[C@@H]2C1
6 |  |  | 38 µL/min |  | 13600 nM | 18 µL/min/mg |  | 3.2 |  |  |  | C#Cc1cc(CN2CCN(C(=O)C=C)CC2)cc(F)c1-c1c(O)cccc1Cl
7 |  |  | 20 µL/min |  | 43 nM | < 7 µL/min/mg | 0.7 | 2.8 | 0.11 |  | 3.9 | C=CC(=O)N1CCN2Cc3cc(F)c(-c4c(O)cccc4Cl)c(F)c3OC[C@H]2C1.O
8 |  |  | 99 µL/min |  | 130 nM | 63 µL/min/mg |  | 3 |  |  |  | C=CC(=O)N1CCN2Cc3cc(C(F)F)c(-c4c(O)cccc4Cl)c(F)c3OC[C@H]2C1
9 |  |  | 29 µL/min |  | 90 nM | 19 µL/min/mg | 1.2 | 2.4 | 0.15 |  |  | C=CC(=O)N1CCN2Cc3cc(F)c(-c4c(C)cccc4O)c(F)c3OC[C@H]2C1
10 |  |  | 174 µL/min |  | 81 nM | 25 µL/min/mg |  | 2.6 |  |  |  | C=CC(=O)N1CCN2Cc3cc(OC4CC4)c(-c4c(O)cccc4Cl)c(F)c3OC[C@H]2C1
11 |  |  | 109 µL/min |  |  | 58 µL/min/mg |  |  |  |  |  | C=CC(=O)N1CCN2c3ncnc4cc(-c5c(C)ccc6[nH]ncc56)c(Cl)c(c34)OC[C@@H]2C1
12 |  |  | 18 µL/min |  | 279 nM | 5 µL/min/mg |  | 2.5 |  |  |  | C=CC(=O)N1CCN2Cc3cc(F)c(-c4c(O)cccc4F)c(F)c3OC[C@H]2C1
13 |  |  | 234 µL/min |  | 8290 nM | 294 µL/min/mg | 1.4 | 3.2 |  |  |  | C=CC(=O)N1CCN2Cc3ccc(-c4c(C)ccc5[nH]ncc45)c(Cl)c3OCCC2C1 (stereo in doubt; 19)
14 |  |  | 101 µL/min |  | 22 nM | 97 µL/min/mg |  | 3.2 |  |  |  | C=CC(=O)N1CCN2Cc3cc(C4CC4)c(-c4c(O)cccc4Cl)c(F)c3OC[C@H]2C1
15 |  |  | 23 µL/min |  | 19 nM | 16 µL/min/mg | 1 | 2.7 | 0.05 |  | 3.9 | C#Cc1cc2c(c(F)c1-c1c(O)cccc1Cl)OC[C@H]1CN(C(=O)C=C)CCN1C2
16 |  |  | 44 µL/min |  | 29 nM | 17 µL/min/mg | 0.6 | 3.2 |  |  |  | C=CC(=O)N1CCN2Cc3cc(Cl)c(-c4c(O)cccc4Cl)c(F)c3OC[C@H]2C1

Second part, the compound before the results:

Row | SMILES | Ratio [1] | logD ([2]; pH 7.4) | CLH [3] | CLH [4] | IC50 (GTPase KRas) | microsomal CLint (in vitro) | efflux ratio at 0.1 µM (MDR1 and BCRP) | logD ([2]; pH 7.4, logD) | Kp uu at 4 h [5] | IC50 (NCI-H358) | pKa [6]
17 | C=CC(=O)N1CCN2Cc3ccc(-c4c(C)ccc5[nH]ncc45)c(Cl)c3OCCC2C1 (stereo in doubt; 20) | 2.1 | 3.3 | 97 µL/min | > 300 µL/min/mg | 4010 nM |  |  |  |  |  | 
18 | C=CC(=O)N1CCN2C(=O)c3ccc(-c4c(C)ccc5[nH]ncc45)c(Cl)c3OC[C@@H]2C1 |  |  | 93 µL/min |  | 4300 nM | 54 µL/min/mg | 1.4 | 2.8 |  |  | 
19 | C=CC(=O)N1CCN(c2nc(=O)n(-c3c(C)ccnc3C(C)C)c3nc(-c4c(O)cccc4F)c(F)cc23)[C@@H](C)C1 [SOTORASIB] |  |  | 18 µL/min |  |  | 36 µL/min/mg |  | 2.3 | 0.01 | 1 nM | 
20 | C=CC(=O)N1CCN2Cc3cc(OC(F)F)c(-c4c(O)cccc4Cl)c(F)c3OC[C@H]2C1 |  |  | 143 µL/min |  | 160 nM | 18 µL/min/mg |  | 2.7 |  |  | 
21 | C=CC(=O)N1CCN2Cc3cc(C#N)c(-c4c(O)cccc4Cl)c(F)c3OC[C@H]2C1 |  |  | 54 µL/min |  | 16 nM | 13 µL/min/mg | 6.5 | 2.5 |  |  | 
22 | C=CC(=O)N1CCN2Cc3ccc(-c4c(O)cccc4F)c(Cl)c3OC[C@H]2C1 |  |  | 52 µL/min |  | 231 nM | 33 µL/min/mg | 0.8 |  |  |  | 
23 | C=CC(=O)N1CCN(Cc2cc(F)c(-c3c(O)cccc3Cl)c(F)c2)CC1 |  |  | 122 µL/min |  | 7820 nM | < 3 µL/min/mg |  | 3.3 |  |  | 
24 | C=CC(=O)N1CCN2Cc3cc(F)c(-c4c(O)cccc4F)c(Cl)c3OC[C@H]2C1 |  |  | 42 µL/min |  | 149 nM | 8 µL/min/mg | 1.2 | 2.8 |  |  | 
25 | C=C(F)C(=O)N1CCN(c2nc(OC[C@@H]3CCCN3C)nc3c2CCN(c2cccc4cccc(Cl)c24)C3)C[C@@H]1CC#N [ADAGRASIB] |  |  | 12 µL/min |  |  | 80 µL/min/mg |  | 3.6 | 0.01 | 6 nM | 
26 | C=CC(=O)N1C[C@H]2CCOc3c(Cl)c(-c4c(O)cccc4F)c(F)c4ncnc(c34)N2C[C@H]1C |  |  | 41 µL/min |  | 3 nM | 26 µL/min/mg | 37.2 | 3.2 | 0.06 |  | 
